Target: T1, mutant IDE (Gln363Ala) (Homo sapiens, UniProt P14735, Q363A)
T1 construct: made in house; host or cells: E. coli (BL21 inferred, as for the wild type)
T1 sequence (P14735 1-1019 Q363A): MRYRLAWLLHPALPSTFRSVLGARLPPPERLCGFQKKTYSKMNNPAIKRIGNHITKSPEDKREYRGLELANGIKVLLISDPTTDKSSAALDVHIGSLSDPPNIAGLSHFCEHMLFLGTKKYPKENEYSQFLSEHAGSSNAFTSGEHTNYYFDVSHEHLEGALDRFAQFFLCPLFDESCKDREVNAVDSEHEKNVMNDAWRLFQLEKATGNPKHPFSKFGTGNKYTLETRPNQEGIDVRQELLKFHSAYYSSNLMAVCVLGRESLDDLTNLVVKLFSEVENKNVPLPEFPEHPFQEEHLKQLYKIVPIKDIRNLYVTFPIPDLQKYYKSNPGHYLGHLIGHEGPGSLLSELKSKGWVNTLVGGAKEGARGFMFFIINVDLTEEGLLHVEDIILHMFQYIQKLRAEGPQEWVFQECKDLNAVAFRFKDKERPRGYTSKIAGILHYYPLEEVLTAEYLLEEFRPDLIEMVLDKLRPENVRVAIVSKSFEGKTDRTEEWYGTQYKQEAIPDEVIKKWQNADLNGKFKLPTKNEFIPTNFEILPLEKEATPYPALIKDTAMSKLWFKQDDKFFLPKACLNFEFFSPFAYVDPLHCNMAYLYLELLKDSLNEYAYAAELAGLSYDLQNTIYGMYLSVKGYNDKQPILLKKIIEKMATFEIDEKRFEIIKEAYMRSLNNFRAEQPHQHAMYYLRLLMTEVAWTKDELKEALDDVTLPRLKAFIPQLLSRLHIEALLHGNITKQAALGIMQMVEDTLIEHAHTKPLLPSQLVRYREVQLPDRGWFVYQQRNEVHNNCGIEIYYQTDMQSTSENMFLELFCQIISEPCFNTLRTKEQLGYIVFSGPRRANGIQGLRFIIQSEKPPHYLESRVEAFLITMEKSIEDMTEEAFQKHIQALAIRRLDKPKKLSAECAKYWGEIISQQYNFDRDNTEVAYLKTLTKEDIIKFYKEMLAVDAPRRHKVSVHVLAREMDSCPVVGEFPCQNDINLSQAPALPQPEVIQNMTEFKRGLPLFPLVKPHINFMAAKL
Assay: FITC-insulin-mAb degradation by mutant IDE (Gln363Ala)
Type: biochemical
Settings: Gln363Ala vs wild type IDE; 20 µM D10
Source text: Since D10 has been found as the strongest activator of IDE towards the proteolysis of insulin, we analyzed the binding site of the compound D10 for the further analysis. According to the computational results, D10 binds to Gln363 at the IDE exosite and His332 (Fig. 1D). We carried out site-directed mutagenesis by replacing these amino acids into Ala in order to verify that D10 indeed binds to this region via these amino acids. We first mutated Gln363 to Ala and then expressed and purified mutant protein through nickel resin. The effect of D10 on the proteolytic activity of mutant IDE (Gln363Ala) was measured towards FITC-insulin-mAb degradation. […] The activation was about 49-fold in the presence of D10 with wild type IDE (Fig. 2B). Although mutant IDE activity was less responsive to D10 compound compared to wild type IDE, it appeared as if D10 were interacting with IDE through […] and could enhance the activity of mutant IDE. […]
The utility of these novel compounds were tested on degradation of insulin by IDE. […] The proteolysis of insulin by IDE was monitored by measuring the changes in fluorescence, where the reaction was carried out with 100 nM of FITC- insulin-mAb and IDE (80 ng) in 100 µl KH2PO4 buffer at a pH of 7.3. […] The increase in fluorescence was monitored by using Fluoroskan Ascent FL microplate reader (Thermo).

Cc1nn(-c2ccccc2)c2nc(-c3cccc([N+](=O)[O-])c3)n3c4ccccc4nc3c2c1=O [Compound D10]
reduction of compound-enhanced activation with mutant IDE: 10 fold

From publication PMC3280214, “Structure Based Discovery of Small Molecules to Regulate the Activity of Human Insulin Degrading Enzyme” (PLoS ONE, 2012)
